# Tests used:
# human isoQC (S53-L382) [1] = target: T1, human isoQC (S53-L382) (Homo sapiens, UniProt Q9NXS2); experiment: Assay 1 - isoQC inhibition, fluorescent enzymatic assay (single concentration); assay type: biochemical; details: isoQC inhibition at 250 nM test compound; read-out: isoQc Inh. Assay No. 1
# T1 construct: enzymatically active region of human isoQC (S53-L382; see, e.g., Huang et al., 2011); GST-Enterokinase site (N, cleaved yes); made in house; host or cells: E. coli
# Procedure: Initially, isoQC inhibitory activity was measured at a single concentration in a fluorescent-based assay (Assay 1 below). In order to establish the inhibitory activity more quantitatively, IC50 values were obtained using a mass spectrometry-based assay where pyroglutamylation by either isoQC or QC was measured (Assays 2 and 4, respectively, below). Alternatively, IC50 values for isoQC or QC were obtained using a fluorescence-based assay (Assays 3 and 5 respectively, below).
# (§1) The Golgi luminal, enzymatically active region of human isoQC (S53-L382; see, e.g., Huang et al., 2011) was obtained by expression in E. coli of an N-terminally GST-Enterokinase and C-terminally 6×His tagged construct in the pET41(+) vector and subsequent purification using talon beads and GST beads, enterokinase digestion and further purification with a final formulation in 25 mM Tris pH 8.0/150 mM NaCl/1 mM TCEP. Absence of pyroglutamylating activity in an enzymatic dead variant that was cloned, expressed, and purified in parallel ruled out that the purification strategy isolates any endogenously present pyroglutamylating activity.
# Pyroglutamylation was measured by conversion of glutamine-4-amino-7-methylcoumarine (H-Gln-AMC, Bachem) to pyroglutamyl-AMC, which is subsequently a specific substrate for pyroglutamylaminopeptidase (pGAPase, Qiagen), releasing free AMC which can be fluorescently detected. For a typical inhibition assay, 15 μL 20 μM h-Gln-AMC (diluted from a 40 mM stock dissolved in 25 mM HEPES using 50 mM Tris-HCl pH 8.0) was pipetted into a 96-well plate on ice. Next, 7.5 μL 1 μM test compound (diluted from a 10 mM stock dissolved in DMSO using 50 mM Tris-HCl) was added. Finally, 7.5 μL, 3 ng/μL recombinant isoQC enzyme was added and the reaction mixture was incubated for 1 hour at 37° C. A 5 minute incubation at 98° C. was then performed to denature the isoQC enzyme and stop the reaction.
# To detect the amount of pyroglutamyl-AMC formed, a 96-well plate was prepared with 25 μL 0.125 U/mL pGAPase enzyme diluted in 50 mM Tris-HCl pH 8.0 containing 10 mM dithiothreitol (DTT). 25 μL of the pyroglutamylation reaction mixture was transferred into the plate containing the pGAPase solutions while on ice. Once done, the plate was moved over to a Spectramax ID3 fluorescent plate-reader to monitor and record the maximum fluorescence at 380 nm excitation/450 nm emission over a period of 20 minutes while keeping the temperature at 37° C.
# DMSO concentrations during the assay never exceeded 1% and activities were compared to controls containing only the same amount of DMSO and no test compound. […] Test compounds were reported as active when <40% of background corrected signal was measured as compared to DMSO controls.
# recombinant human QC = target: T2, recombinant human QC (Homo sapiens, UniProt Q16769); experiment: Assay 4 - QC potency, mass spectrometry-based enzymatic potency assay; assay type: biochemical; details: mass spectrometry read-out; read-out: QC Pot. Assay No. 4
# T2 construct: His6 (N); purchased R&D Systems
# T2 sequence (Q16769 29-361): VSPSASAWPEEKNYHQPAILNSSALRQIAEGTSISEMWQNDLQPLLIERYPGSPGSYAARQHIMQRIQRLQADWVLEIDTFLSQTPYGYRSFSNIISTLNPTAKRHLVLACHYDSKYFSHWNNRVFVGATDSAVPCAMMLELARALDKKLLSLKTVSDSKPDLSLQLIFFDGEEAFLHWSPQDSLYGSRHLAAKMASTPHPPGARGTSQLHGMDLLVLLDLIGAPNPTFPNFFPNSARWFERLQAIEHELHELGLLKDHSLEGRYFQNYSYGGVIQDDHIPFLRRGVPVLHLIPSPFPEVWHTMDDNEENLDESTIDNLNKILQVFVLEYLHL
# Procedure: (§2) EC50's of test compounds were determined by incubating 11-point two-fold dilutions of test compound in 20 μL volumes in the presence of 7.5 nM isoQC and 10 μM H-Gln-AMC using 50 mM Tris-HCl pH 8.0 as assay buffer for 2 hours at room temperature before stopping the reaction by the addition of 2 volumes of methanol. Both the substrate and the product of this reaction were read out using an Agilent RapidFire microfluidic solid phase sample extraction system coupled to an AB Sciex API 4000 triple quadrupole mass spectrometer, in negative ion mode, at m/z of 301.9 and 284.9 respectively. The actual readout was defined as P/(S+P), where P is the product signal area and S the substrate signal area. EC50's were calculated by four parameter sigmoidal model fitting.
# EC50's of test compounds were determined in the same way as described in Assay 2 above, except that N-terminally His6-tagged recombinant human QC (R&D Systems) was used instead of isoQC.
# human isoQC (S53-L382) [2] = target: T1, human isoQC (S53-L382); experiment: Assay 2 - isoQC potency, mass spectrometry-based enzymatic potency assay; assay type: biochemical; details: mass spectrometry read-out, 7.5 nM isoQC, 10 μM H-Gln-AMC; read-out: isoQc Pot. Assay No. 2
# Procedure: as §1, §2
# [3] = tested on: pyroglutamylated CD47 (pE-CD47) in KBM7 cells; experiment: Assay 6 - cell-based potency assay (pE-CD47 CC2C6 staining vs total CD47); set-up: species or system human; details: Homo sapiens, KBM-7, 72 h, CC2C6 signal, read-out: Cell Pot. Assay No. 6
# Procedure: Cells were spun for 4 minutes at 1500 rpm and washed once with PBS/0.5% BSA. Cells were spun down again and the supernatant was removed and incubated in 100 uL antibody staining solution (PBS/0.5% BSA/0.1 μg/mL DAPI (4′,6-diamidino-2-phenylindole, ThermoFisher Scientific) and a mixture of 1:500 FITC-conjugated anti-human CD47 clone 2D3, which recognizes total CD47 irrespective of its pyroglutamylation state, and 1:500 Alexa647-conjugated anti-human CD47 clone CC2C6, which specifically detects pyroglutamylated CD47) for 2 hours at 4° C. Next, the cells were spun down and washed twice with 2×150 μL PBS/0.5% BSA to remove unbound antibody. Cells were again spun down and taken up in 300 μL FACS buffer before analysis on a Celesta FACS machine (BD Biosciences).
# KBM7 cells (Kotecki et al., 1999) were infected with lentivirus produced by transfecting pSCNC-LentiCRISPR-QPCTL or pSCNC-LentiCRISPR-CD47 into HEK-293T cells according to standard protocols. After 24 hours incubation, cells were selected with puromycin (Invivogen, 1 μg/mL) for 48 hours. Cells were stained for total CD47 and pE-CD47 and QPCTL k.o. cells were sorted out as negative for pE-CD47, and CD47 k.o. cells as negative for total CD47, using a FACSAria III and FACS Diva software (BD Biosciences).
# In order to test compounds for their effect on pyroglutamylation in live cells, 25000 KBM7 cells per well were seeded in a 96-well U-bottom plate in 150 μl IMDM/10% FCS/1% Pen/Strep medium and a 10-point 2-fold dilution range of test compounds. After 72 hours incubation at 37° C., 5% CO2, cells were stained for total CD47 and pE-CD47 and analyzed on a BD Celesta using FACS Diva software (BD Biosciences). Cells gated for DAPI negativity were recorded and the median fluorescence intensity (MFI) of each sample was transformed to linearly scale between the MFI's of wildtype and CD47 knockout cells (in case of the 2D3 antibody) and the wildtype and QPCTL knockout cells (in case of the CC2C6 antibody). IC50's were calculated by 3 parameter logistic regression of the CC2C6 signal vs. compound concentration, where the top of the sigmoidal curve was fixed at 1, using R and the drc package (http://www.r-project.org, https://cran.r-project.org/web/packages/drc/index.html).
# T1 sequence (Q9NXS2 53-382): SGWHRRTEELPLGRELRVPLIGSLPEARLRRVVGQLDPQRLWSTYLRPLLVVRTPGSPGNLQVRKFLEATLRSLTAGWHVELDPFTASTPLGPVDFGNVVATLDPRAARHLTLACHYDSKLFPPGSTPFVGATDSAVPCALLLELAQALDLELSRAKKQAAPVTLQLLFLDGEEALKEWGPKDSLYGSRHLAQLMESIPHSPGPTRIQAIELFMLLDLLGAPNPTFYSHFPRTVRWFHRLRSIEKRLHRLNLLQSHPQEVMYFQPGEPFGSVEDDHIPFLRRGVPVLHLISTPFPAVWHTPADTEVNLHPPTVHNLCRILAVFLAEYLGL
Compound,inhibition at 0.25 µM (human isoQC (S53-L382) [1]) [%],IC50 (recombinant human QC) [nM],IC50 (human isoQC (S53-L382) [2]) [nM],IC50 [3] [nM]
CCCOc1ccc(C2c3c(nn(C(C)C)c3C)C(=O)N2c2ccc3[nH]cnc3c2)cc1 (centres unmarked) [FRPPO-030],> 40,100 to 5000,100 to 5000,1000 to 5000
Cc1c2c(nn1C)C(=O)N(c1ccc3[nH]cnc3c1)C2c1ccc(OCC(C)(F)F)c(F)c1F (centres unmarked) [FRPPO-019],> 40,< 25,25 to 100,< 1000
CCCOc1ccc(C2c3c(nn(C)c3C)C(=O)N2c2ccn3ccnc3c2)cc1 (centres unmarked) [FRPPO-009],> 40,100 to 5000,25 to 100,1000 to 5000
Cc1c2c(nn1C)C(=O)N(c1ccc3[nH]cnc3c1)C2c1cccc(F)c1F (centres unmarked) [FRPPO-012],> 40,25 to 100,< 25,< 1000
Cc1c2c(nn1C)C(=O)N(c1ccc3[nH]cnc3c1)C2c1ccc(N2CCCC2=O)cc1 (centres unmarked) [FRPPO-016],> 40,25 to 100,< 25,5000 to 50000
Cc1c2c(nn1C)C(=O)N(c1ccc3[nH]cnc3c1)C2c1ccc(N2CCCCCC2=O)cc1 (centres unmarked) [FRPPO-011],> 40,100 to 5000,25 to 100,≥ 50000
CCCOc1ccc(C2c3c(nn(C)c3C)C(=O)N2c2ccc3[nH]cnc3c2)c(C)c1 (centres unmarked) [FRPPO-003],> 40,100 to 5000,25 to 100,< 1000
Cc1c2c(nn1C)C(=O)N(c1ccc3[nH]cnc3c1)C2c1cc(F)cc(F)c1F (centres unmarked) [FRPPO-013],> 40,25 to 100,25 to 100,1000 to 5000
Cc1c2c(nn1C)C(=O)N(c1ccc3[nH]cnc3c1)C2c1ccc(N2CCC(C)(C)C2=O)cc1 (centres unmarked) [FRPPO-010],> 40,25 to 100,25 to 100,1000 to 5000
Cc1c2c(nn1C)C(=O)N(c1ccc3[nH]cnc3c1)C2c1ccc(Oc2cnn(C)c2)cc1 (centres unmarked) [FRPPO-025],> 40,25 to 100,< 25,5000 to 50000
CCCOc1ccc(C2c3c(nn(CC)c3C)C(=O)N2c2ccc3[nH]cnc3c2)cc1 (centres unmarked) [FRPPO-029],> 40,100 to 5000,25 to 100,< 1000
Cc1c2c(nn1C)C(=O)N(c1ccc3[nH]cnc3c1)C2c1ccc(-c2ccccn2)cc1 (centres unmarked) [FRPPO-014],> 40,25 to 100,< 25,1000 to 5000
COc1ccc(C2c3c(nn(C)c3C)C(=O)N2c2ccc3[nH]cnc3c2)cc1O (centres unmarked) [FRPPO-018],> 40,< 25,< 25,5000 to 50000
CCCOc1ccc(C2c3c(nn(C4CCC4)c3C)C(=O)N2c2ccc3[nH]cnc3c2)cc1 (centres unmarked) [FRPPO-033],> 40,100 to 5000,100 to 5000,1000 to 5000

# — patent US20230077723A1, “N-SUBSTITUTED-3,4-(FUSED 5-RING)-5-PHENYL-PYRROLIDINE-2-ONE COMPOUNDS AS INHIBITORS OF ISOQC AND/OR QC ENZYME” (Scenic Immunology B.V., priority 2019, published 2023)
